Measured values taken from patent US20230233617A1, “METHODS FOR DIFFERENTIATING STEM CELLS INTO DOPAMINERGIC PROGENITOR CELLS” (JZ CELL TECHNOLOGIES AB, priority 2020, published 2023).

Key:
hPSC-derived NSCs = test: Ventral regional identity of hPSC-derived NSCs at 9 DDC in dSMADi+SAG conditions (NKX2.1, LMX1A, PHOX2B, NKX2.2); format: cell-based, human; details: 9 DDC
CYP26A1 = CYP26A1 expression in hPSC cultures; format: cell-based, human; details: 50-1,000 nM RA, dSMADi
Description: (d) Effect of RA concentration (50, 100, 300, 500 and 1,000 nM RA) on CYP26A1 expression in 1 DDC cultures differentiated in dSMADi-condition. (e) Temporal expression profile of CYP26A1 in cultures differentiated in dSMADi and pulsed with no RA or 300, 500 or 1,000 nM of RA for 2 days. […] (g) Relative gene expression of indicated genes in 9 DDC cultures differentiated in RA^1D+SAG condition and in the presence of different concentrations of the CYP26 inhibitor R115866. […] (c-e) values, mean±S.D.
Total RNA was isolated using Quick-RNA Mini Prep Plus kit (Zymo Research). cDNA was prepared using Maxima First Strand cDNA synthesis kit (Thermo Fisher Scientific). Quantitative Real-Time PCR was performed in a 7500 Fast Real Time PCR system thermal cycler using Fast SYBR Green PCR Master Mix (Applied Biosystems). Analysis of gene expression was performed using the 2-ΔΔCt method, where relative gene expression was normalized to GAPDH transcript levels.

For `CC1=C(/C=C/C(C)=C/C=C/C(C)=C/C(=O)O)C(C)(C)CCC1` [RA, all-trans retinoic acid], the “ventral identity of NSCs” value (hPSC-derived NSCs; RA^1D+SAG) was “expressed the FB-specific markers FOXG1, SIX3, SIX6, and LHX2”, the “identity of NSCs” value (hPSC-derived NSCs; RA^2D+SAG, 100 nM or 800 nM RA) was “LMX1A^+/NKX2.1^− NSCs were generated but at lower numbers” and the “RA concentration at which the vast majority of NSCs expressed LMX1A+/NKX2.1− vMB-identity” value (hPSC-derived NSCs; RA^2D+SAG) was 200 to 400 nM. The “ventral identity of NSCs” value (hPSC-derived NSCs; RA^2D+SAG) was “LMX1A^+/LMX1B^+/FOXA2^+/OTX2^+ identity characteristic of vMB mDA neuron progenitors”, the “ventral identity of NSCs” value (hPSC-derived NSCs; RA^3D+SAG or RA^4D+SAG) was “expressed HOX genes and the ventral markers NKX2.2, PHOX2B, NKX6.1, and NKX6.2 typical of cranial motor neuron (MN) progenitors of the HB” and the “time at which the 48 hour RA-pulse must be initiated for effective induction of vMB NSC identity” value (hPSC-derived NSCs; dSMADi+SAG) was 0-2 DDC. For the same molecule, the CYP26A1 expression (CYP26A1) was “concentration-dependent activation and adaptive temporal expression of CYP26A1”.
